Measurements: US8609413B2, “Neurons, astrocytes and oligodendrocytes differentiated from a mammalian pluripotent or neural stem cells exposed to a pyridine deriviative” (Research Development Foundation, priority 2007, dated 2013)

Tests used:
[1] = system: human ESC-derived NPC / ESC aggregates; experiment: Air/liquid interface three-dimensional culture with added factors; assay type: cell-based; settings: exogenously added factor
Source text: Air/liquid interface expansion/differentiation of NPC may be performed via the following protocol. One or more rosettes-enriched clusters may be manually removed and multiple clusters (e.g., about 5-10 clusters) may be plated on a hydrophilic polytetrafluoroethylene (PTFE) membrane (e.g., 6 mm diameter, 0.4 μm, BioCell-Interface, La Chaux-de-Fonds, Switzerland). This membrane may be deposited on a Millicell®-CM (0.4 μm) Culture Plate Insert (Millipore) (FIG. 5A). N2 medium may preferably be added (e.g., about 1 ml) underneath the membrane insert.
Air/liquid interface expansion/differentiation of NPC. Rosettes-enriched cluster were manually removed and 5-10 clusters were plated on a hydrophilic polytetrafluoroethylene (PTFE) membrane (6 mm diameter, 0.4 μm, BioCell-Interface, La Chaux-de-Fonds, Switzerland). This membrane was deposited on a Millicell®-CM (0.4 μm) Culture Plate Insert (Millipore) (FIG. 1). One ml of N2 medium was added underneath the membrane insert.

mouse ES cells = settings: literature reports; cited from earlier work
human ES cells = experiment: TWS119 tested by the inventors on human ES cells; assay type: cell-based

EGF: epidermal growth factor
phenotype of engineered tissue [1]: did not induce phenotypic changes
size of engineered tissue [1]: moderate increase

FGF-2: basic fibroblast growth factor, exogenously added growth factor
phenotype of engineered tissue [1]: did not induce phenotypic changes
size of engineered tissue [1]: moderate increase

Cc1cccc(C#Cc2ccccc2)n1 [MPEP, 2-methyl-6-(phenylethynyl)-pyridine]
neuronal differentiation of mouse ES cells (mouse ES cells): enhances their differentiation towards neurons

Nc1cccc(-c2cc3c(Oc4cccc(O)c4)ncnc3[nH]2)c1 [TWS119]
cell growth (human ES cells): decreased cell growth
neuronal differentiation (human ES cells): only small effect on neuronal differentiation
neuronal differentiation of mouse ES cells (mouse ES cells): enhanced neuronal differentiation of mouse ES cells
